The experiment addresses T1, Aldehyde dehydrogenase 1A1 (Rattus norvegicus) (UniProt P51647).
T1 sequence (whole entry): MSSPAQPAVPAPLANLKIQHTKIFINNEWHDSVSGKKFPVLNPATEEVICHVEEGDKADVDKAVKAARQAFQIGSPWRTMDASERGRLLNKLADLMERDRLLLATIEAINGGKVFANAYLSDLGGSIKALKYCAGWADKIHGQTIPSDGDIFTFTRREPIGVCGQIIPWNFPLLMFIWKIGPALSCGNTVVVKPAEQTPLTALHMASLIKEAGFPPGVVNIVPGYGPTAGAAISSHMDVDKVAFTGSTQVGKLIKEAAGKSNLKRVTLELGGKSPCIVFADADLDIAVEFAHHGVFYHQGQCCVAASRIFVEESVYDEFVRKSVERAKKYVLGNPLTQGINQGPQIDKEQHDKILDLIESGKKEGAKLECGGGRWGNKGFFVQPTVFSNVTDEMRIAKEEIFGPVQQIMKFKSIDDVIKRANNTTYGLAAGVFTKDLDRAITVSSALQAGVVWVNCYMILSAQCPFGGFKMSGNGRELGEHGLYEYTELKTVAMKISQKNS
In words: Percent inhibition of rat hepatic mitochondrial […] dehydrogenase. To be noted: concentration not given here.

Molecules are shown by their SMILES.

For orientation: inhibition means the relative decrease from the control value, in per cent. Consider `CCOC(=O)N(OC(=O)N(CC)CC)S(=O)(=O)c1ccccc1`, for which the inhibition was over 70%.
